We go through one compound from patent US11911349B2, “Rapidly improving vascular conditions by administering vitamin K” (NATTOPHARMA AS, priority 2018, dated 2024).

The subject of this assay is ApoE/LDLR−/− mice. The experiment in a line: Example 3: histological assessment of area and composition of atherosclerotic plaque in BCA, older mice. The format is in vivo. Conditions: eight weeks; for decrease in vessel wall area (VWA): 24-week-old mice. An excerpt: For the determination of atherosclerotic plaque area and composition isolated brachiocephalic artery (BCA) was dissected, fixed in 4% buffered formalin, and embedded in paraffin. 5 μm-thick serial sections of BCA were collected from the proximal to distal part of the artery. Staining with Unna's orcein combined with Martius, Scarlet and Blue trichrome (OMSB) was applied on every tenth section (50 μm interval between each section) for quantitative analysis of atherosclerotic plaques. The areas of particular components of atherosclerotic plaque as well as artery lumen and wall were determined after Columbus-based software processing (FIG. 9) using specially-designed algorithm as described in Gajda M, Jasztal A, Banasik T, Jasek-Gajda E, Chlopicki S. Combined orcein and martius scarlet blue (OMSB) staining for qualitative and quantitative analyses of atherosclerotic plaques in brachiocephalic arteries in apoE/LDLR−/− mice. Histochem Cell Biol 2017. doi:10.1007/s00418-017-1538-8. The parameters analyzed include vessel wall area (VWA), internal vessel area (IVA=plaque area+lumen area), plaque area (expressed as percent of internal wall area: plaque/IWA), and lumen area (expressed as percent of internal wall area: lumen/IWA).

Turning to `CC(C)=CCC/C(C)=C/CC/C(C)=C/CC/C(C)=C/CC/C(C)=C/CC/C(C)=C/CC/C(C)=C/CC1=C(C)C(=O)c2ccccc2C1=O` [MK-7, menaquinone-7], where the note is “high dose 10 mg/kg b.w./day”, the “lumen area expressed as percent of IWA” value is given as “did not change”, the “plaque area expressed as percent of IWA” value is “did not change”, the “plaque size compared with non-treated mice” value is reported as “not different” and the “decrease in vessel wall area (VWA)” value is “about 5%”. For the same compound, under “low dose 0.03 mg/kg b.w./day”, the “lumen area expressed as percent of IWA” value is “did not change”, the “plaque area expressed as percent of IWA” value is listed as “did not change”, the “plaque size compared with non-treated mice” value was “not different” and the “decrease in vessel wall area (VWA)” value is listed as “about 5%”. Also, where the note is “lower dose, data not shown, not visible for entire vessel”, the “internal wall area (IWA)” value is listed as “decreased only in the middle part of the vessel”.
